Test results reported in patent US12252524B2, “GIP/GLP1 co-agonist compounds” (Eli Lilly and Company, priority 2018, dated 2025).
Numbered stars: 1 amine (or outer) side, 2 acyl side, 3 side chain; on linkers, the order of the positions; unused ones are H or OH. Square brackets hold non-standard residues; d marks the D form. Side chains are listed from the residue outwards. Peptide text beside a SMILES is read from it. * marks the point of attachment. C20 diacid = O=C(O)CCCCCCCCCCCCCCCCCCC(=O)*; C18 diacid = O=C(O)CCCCCCCCCCCCCCCCC(=O)*; αMePhe(2-F) = C[C@](N)(Cc1ccccc1F)C(=O)O; γGlu = O=C(O)[C@H](CCC(=O)[*:2])N[*:1]; αMeY = C[C@](N)(Cc1ccc(O)cc1)C(=O)O; αMeL = CC(C)C[C@](C)(N)C(=O)O; AEEA = NCCOCCOCC(=O)O; Aib = CC(C)(N)C(=O)O

What was measured:
human Gcg receptor = molecular target: T1, human Gcg receptor (Homo sapiens, UniProt P47871); experiment: [125I]-Glucagon binding (SPA), human Gcg receptor; settings: read-out: hGLcgR Ki, nM (SEM, n)
T1 construct: expressed in transfected cells; crude membranes
Procedure, shortened: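 Cell pellets were lysed in hypotonic Tris buffer, pH 7.5, homogenized, and spun at low then high speed to give crude membranes. Ki was derived from the fitted IC50.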

human GIP receptor = molecular target: T2, human GIP receptor (Homo sapiens, UniProt P48546); experiment: [125I]-GIP binding (SPA), human GIP receptor; settings: read-out: hGIPR Ki, nM (SEM, n)
T2 construct: expressed in transfected cells; crude membranes
T2 sequence (P48546 22-466): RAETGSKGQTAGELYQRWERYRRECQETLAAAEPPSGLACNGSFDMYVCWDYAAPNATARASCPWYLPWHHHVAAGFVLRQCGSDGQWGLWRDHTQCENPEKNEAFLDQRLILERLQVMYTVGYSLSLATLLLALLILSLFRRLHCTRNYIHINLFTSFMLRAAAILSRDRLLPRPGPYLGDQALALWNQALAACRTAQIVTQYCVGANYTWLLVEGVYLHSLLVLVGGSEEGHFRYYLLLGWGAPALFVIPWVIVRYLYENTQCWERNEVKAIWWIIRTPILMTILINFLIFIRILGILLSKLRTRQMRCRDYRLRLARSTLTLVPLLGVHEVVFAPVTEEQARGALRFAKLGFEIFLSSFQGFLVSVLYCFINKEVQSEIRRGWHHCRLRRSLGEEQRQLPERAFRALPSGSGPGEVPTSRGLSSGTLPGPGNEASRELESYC

[1] = molecular target: human GLP-1 receptor (GLP-1R) (Homo sapiens, UniProt P43220); experiment: cAMP pharmacological functional assay in presence of casein, hGLP-1R; format: cell-based; settings: HEK293 cells expressing hGLP-1R, 0.1% Casein, geometric mean; read-out: hGLP1R cAMP Rel EC50 nM (SEM, n)
[2] = molecular target: T3, gastric inhibitory peptide receptor (GIPR) (Homo sapiens, UniProt P48546); experiment: cAMP pharmacological functional assay in presence of casein, hGIPR; format: cell-based; settings: HEK293 cells expressing hGIPR, 0.1% Casein, geometric mean; read-out: hGIPR cAMP Rel EC50 nM (SEM, n)
T3 sequence (P48546 22-466): T2 sequence (P48546 22-466)

in vitro = experiment: in vitro
Protocol: The stability of peptides are compared in 1% rat small intestinal fluid (rSIF). The amount of intact peptide is measured for a sample peptide at 0, 3, 15, and 30 minutes to assess proteolytic stability. The amount of intact peptide for a sample peptide is measured in 90% pig small intestinal fluid (pSIF) at 0, 30, 45, and 60 minutes to assess the proteolytic stability.
Peptides are prepared at 0.4 mg/mL in 50 mM Tris pH8.0. […] The mixture is incubated at 37° C. at 150 rpm. Thirty μL of each sample are removed and placed into a new tube before the rSIF is added and at […]. At each time point, the reaction was quenched by 1% TFA in 50% ACN at 1:1. The samples are diluted 100 times using dilution buffer (1:1 of 1% TFA in 50% ACN: 50 mM Tris pH8) and ready for analysis using mass spectrometry (MS).
The data analysis is performed using MassLynx.

human GLP-1R [3] = molecular target: T4, human GLP-1R (Homo sapiens, UniProt P43220); experiment: [125I]-GLP-1 binding (SPA), human GLP-1 receptor; design: expressed in transfected cells; crude membranes; settings: read-out: hGLP1R Ki, (nM) (SEM, n)
Procedure, shortened: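 Ki values are geometric means with SEM over independent replicates on different days, derived from IC50s fitted by four-parameter nonlinear regression. The assay used crude cell membranes in HEPES buffer, pH 7.4, containing CaCl2, MgCl2, bacitracin and TWEEN-20.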

[4] = Body weight in diet-induced obese C57/B16 mice, 14-day treatment; format: in vivo, C57/B16 diet-induced obese (DIO) male mice; settings: s.c., QD, DIO mice
Protocol: C57/B16 diet-induced obese (DIO) male mice (Taconic, Germantown, NY) weighing 41-50 g are used. Animals are individually housed in a temperature-controlled (24° C.) facility with a 12 hour light/dark photoperiod (lights off at 10:00 AM and lights on at 10:00 PM), with free access to food and water. After 2 week acclimatization to the facility, mice are randomized to treatment groups (n=6/group) based on body weight so each group has similar starting mean body weight.
Mice are treated with either vehicle (40 mM Tris-HCl at pH 8.0) or several peptides between the dose ranges of 0.03 nmol/kg to 10 nmol/kg. Treatments are subcutaneously administered to ad libitum fed DIO mice 30-90 minutes prior to the onset of the dark cycle daily (QD) for 14 days. During the course of the study, body weight and food intake are monitored daily. […]
[formula] “0” dose group represents the vehicle-treated mice during each study. All data are expressed as mean±SEM of 5-6 mice per group. Statistical analyses are assessed by one-way ANOVA followed by Dunnett's multiple comparison test to compare treatment groups to ‘0’, dose (vehicle). *Significant differences are identified at p<0.05. Body weight change after treatment with Example compounds after 15 days. “Δ from vehicle” refers to difference between body weight at day 15 between test and vehicle groups. “% n change” refers to percent decrease in body weight between days 1 and 15 in test groups. Percent decrease in body weight for animals receiving vehicle is recorded, and is less than about 100 in each study.

human GLP-1R [5] = molecular target: T4, human GLP-1R; experiment: GLP-1R CHO cell β-arrestin recruitment assay; format: cell-based; design: host or cells: CHO-K1 PathHunter cells, assay-ready frozen
Procedure, shortened: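 PathHunter CHO-K1 cells with ProLink-tagged human GLP-1R and enzyme-acceptor-tagged β-arrestin-2 treated with serially diluted peptides in assay buffer containing 0.1% hydrolyzed casein, 90 min at 37 °C.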

human GLP-1R [6] = molecular target: T4, human GLP-1R; experiment: GLP-1R HEK293 cell membrane [35S]GTPγS binding assay; format: biochemical; design: expressed in transfected cells; host or cells: HEK293 cells expressing human GLP-1R; membranes; settings: HEK293 cell membranes expressing human GLP-1R, [35S]GTPγS binding; read-out: hGLP1R GTPgS Rel EC50 nM (SEM, n)
Procedure, shortened: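 Membranes from HEK293 cells expressing the receptor incubated with peptide and […] [35S]GTPγS in HEPES pH 7.4 buffer with NaCl, MgCl2, saponin and BSA, 30 min at room temperature. Gαs-bound label captured by anti-Gαs antibody/SPA beads and counted; EC50 from four-parameter logistic fit.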

[7] = tested on: CD8+ T cell depleted peripheral blood mononuclear cells; experiment: CD4+ T cell assay for potential clinical immunogenicity; settings: Examples 10 uM, KLH 0.33 μM, 7 days
[8] = rat, real gastrointestinal fluid or homogenate, pH 8

T1 sequence (P47871 26-477): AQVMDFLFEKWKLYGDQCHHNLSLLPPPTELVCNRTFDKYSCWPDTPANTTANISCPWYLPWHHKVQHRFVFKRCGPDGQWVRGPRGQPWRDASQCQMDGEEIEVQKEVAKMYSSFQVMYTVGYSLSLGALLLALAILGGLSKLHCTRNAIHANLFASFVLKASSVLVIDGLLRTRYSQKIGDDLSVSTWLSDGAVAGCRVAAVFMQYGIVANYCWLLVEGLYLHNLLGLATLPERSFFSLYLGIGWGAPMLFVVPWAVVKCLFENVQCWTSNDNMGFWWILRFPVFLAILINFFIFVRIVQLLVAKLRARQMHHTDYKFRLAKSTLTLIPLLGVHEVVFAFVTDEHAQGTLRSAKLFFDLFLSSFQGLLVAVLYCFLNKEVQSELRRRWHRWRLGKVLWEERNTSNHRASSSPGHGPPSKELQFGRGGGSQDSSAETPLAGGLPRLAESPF
T4 sequence (P43220 24-463): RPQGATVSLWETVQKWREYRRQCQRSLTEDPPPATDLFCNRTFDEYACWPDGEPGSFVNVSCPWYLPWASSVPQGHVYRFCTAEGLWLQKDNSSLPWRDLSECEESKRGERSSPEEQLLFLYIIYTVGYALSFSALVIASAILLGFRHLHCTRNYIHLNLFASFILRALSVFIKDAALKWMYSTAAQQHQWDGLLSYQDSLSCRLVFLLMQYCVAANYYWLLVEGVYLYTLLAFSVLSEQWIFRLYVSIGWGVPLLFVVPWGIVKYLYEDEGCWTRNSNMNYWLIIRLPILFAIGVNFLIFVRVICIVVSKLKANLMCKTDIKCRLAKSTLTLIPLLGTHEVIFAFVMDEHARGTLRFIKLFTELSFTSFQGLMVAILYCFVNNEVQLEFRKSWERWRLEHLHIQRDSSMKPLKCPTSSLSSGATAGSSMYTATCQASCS
Chain of human GLP-1 receptor (GLP-1R) (P43220 24-463): as above

`CC[C@H](C)[C@H](NC(=O)[C@H](CC(C)C)NC(=O)[C@H](Cc1ccc(O)cc1)NC(=O)[C@H](CCC(=O)O)NC(=O)[C@@H](NC(=O)[C@H](Cc1ccccc1)NC(=O)[C@H](C)NC(=O)C(C)(C)NC(=O)[C@H](CCC(N)=O)NC(=O)[C@H](C)NC(=O)[C@H](CCCCNC(=O)COCCOCCNC(=O)COCCOCCNC(=O)CC[C@H](NC(=O)CCCCCCCCCCCCCCCCCCC(=O)O)C(=O)O)NC(=O)[C@H](CCCCN)NC(=O)[C@H](CC(=O)O)NC(=O)[C@H](CC(C)C)NC(=O)[C@](C)(CC(C)C)NC(=O)[C@@H](NC(=O)[C@H](CO)NC(=O)[C@H](Cc1ccc(O)cc1)NC(=O)[C@H](CC(=O)O)NC(=O)[C@H](CO)NC(=O)[C@@H](NC(=O)[C@](C)(Cc1ccccc1)NC(=O)[C@@H](NC(=O)CNC(=O)[C@H](CCC(=O)O)NC(=O)C(C)(C)NC(=O)[C@@H](N)Cc1ccc(O)cc1)[C@@H](C)O)[C@@H](C)O)[C@@H](C)CC)[C@@H](C)CC)C(=O)N[C@@H](CCC(=O)O)C(=O)NCC(=O)NCC(=O)N1CCC[C@H]1C(=O)N[C@@H](CO)C(=O)N[C@@H](CO)C(=O)NCC(=O)N[C@@H](C)C(=O)N1CCC[C@H]1C(=O)N1CCC[C@H]1C(=O)N1CCC[C@H]1C(=O)N[C@@H](CO)C(N)=O` [Example 69] showed a Ki (human Gcg receptor) of 22.1 nM, a Ki (human GIP receptor) of 0.03 nM and an EC50 [1] of 0.0844 nM. The EC50 [2] was 0.0712 nM, the “percentage of peptide not cleaved using rSIF” value (in vitro) was 100% and the remaining at 0.05 h, 0.4 mg/mL (in vitro; [8]) was 2.2%. It also gave a remaining at 0.25 h, 0.4 mg/mL (in vitro; [8]) of 0%, a remaining at 1 h, 0.4 mg/mL (in vitro; [8]) of 0% and a Ki (human GLP-1R [3]) of 1.22 nM.

`CC[C@H](C)[C@H](NC(=O)[C@H](CC(C)C)NC(=O)[C@H](Cc1ccc(O)cc1)NC(=O)[C@H](CCC(=O)O)NC(=O)[C@@H](NC(=O)[C@H](Cc1ccccc1)NC(=O)[C@H](CCC(=O)O)NC(=O)C(C)(C)NC(=O)[C@H](CCC(N)=O)NC(=O)[C@H](C)NC(=O)[C@H](CCCCNC(=O)COCCOCCNC(=O)COCCOCCNC(=O)CC[C@H](NC(=O)CCCCCCCCCCCCCCCCC(=O)O)C(=O)O)NC(=O)[C@H](CCC(=O)O)NC(=O)[C@H](CC(=O)O)NC(=O)[C@H](CC(C)C)NC(=O)[C@](C)(CC(C)C)NC(=O)[C@@H](NC(=O)[C@H](CO)NC(=O)[C@H](Cc1ccc(O)cc1)NC(=O)[C@H](CC(=O)O)NC(=O)[C@H](CO)NC(=O)[C@@H](NC(=O)[C@](C)(Cc1ccccc1F)NC(=O)[C@@H](NC(=O)CNC(=O)[C@H](CCC(=O)O)NC(=O)C(C)(C)NC(=O)[C@@H](N)Cc1ccc(O)cc1)[C@@H](C)O)[C@@H](C)O)[C@@H](C)CC)[C@@H](C)CC)C(=O)N[C@@H](CCC(=O)O)C(=O)NCC(=O)NCC(N)=O` [Example 104] (H-Y[Aib]EGT[αMePhe(2-F)]TSDYSI[αMeL]LDEK([AEEA-AEEA-γGlu-C18 diacid])AQ[Aib]EFIEYLIEGG-NH2) gave a Ki (human Gcg receptor) of 123 nM, a Ki (human GIP receptor) of 0.0565 nM and an EC50 [1] of 0.0248 nM. For the same compound, the EC50 [2] was 0.0323 nM, the “percent body weight after 14-day of treatment” value (shortened to “percent body weight”) ([4]; dose 0.03 nmol/kg) was 94.0% and the “percent body weight” value ([4]; dose 0.1 nmol/kg) was 94.1%. The “percent body weight” value ([4]; dose 0.3 nmol/kg) was 89.0%, the “percent body weight” value ([4]; dose 1 nmol/kg) was 82.7% and the “percent body weight” value ([4]; dose 3 nmol/kg) was 70.8%. The “percent body weight” value ([4]; dose 10 nmol/kg) was 71.3% and the Ki (human GLP-1R [3]) was 3.91 nM.

With `CC[C@H](C)[C@H](NC(=O)[C@H](CC(C)C)NC(=O)[C@](C)(Cc1ccc(O)cc1)NC(=O)[C@H](CCC(=O)O)NC(=O)[C@@H](NC(=O)[C@H](Cc1ccccc1)NC(=O)[C@H](CCC(=O)O)NC(=O)C(C)(C)NC(=O)[C@H](CCC(N)=O)NC(=O)[C@H](C)NC(=O)[C@H](CCCCNC(=O)COCCOCCNC(=O)COCCOCCNC(=O)CC[C@H](NC(=O)CCCCCCCCCCCCCCCCCCC(=O)O)C(=O)O)NC(=O)[C@H](CCCCN)NC(=O)[C@H](CC(=O)O)NC(=O)[C@H](CC(C)C)NC(=O)[C@](C)(CC(C)C)NC(=O)[C@@H](NC(=O)[C@H](CO)NC(=O)[C@H](Cc1ccc(O)cc1)NC(=O)[C@H](CC(=O)O)NC(=O)[C@H](CO)NC(=O)[C@@H](NC(=O)[C@H](Cc1ccccc1)NC(=O)[C@@H](NC(=O)CNC(=O)[C@H](CCC(=O)O)NC(=O)C(C)(C)NC(=O)[C@@H](N)Cc1ccc(O)cc1)[C@@H](C)O)[C@@H](C)O)[C@@H](C)CC)[C@@H](C)CC)C(=O)N[C@@H](C)C(=O)NCC(=O)NCC(=O)N1CCC[C@H]1C(=O)N[C@@H](CO)C(=O)N[C@@H](CO)C(=O)NCC(=O)N[C@@H](C)C(=O)N1CCC[C@H]1C(=O)N1CCC[C@H]1C(=O)N1CCC[C@H]1C(=O)N[C@@H](CO)C(N)=O` [Example 367] (H-Y[Aib]EGTFTSDYSI[αMeL]LDKK([AEEA-AEEA-γGlu-C20 diacid])AQ[Aib]EFIE[αMeY]LIAGGPSSGAPPPS-NH2) the Ki (human Gcg receptor) was 777 nM, the Ki (human GIP receptor) was 0.0282 nM and the EC50 [1] was 0.0641 nM. The EC50 [2] was 0.0179 nM, the Ki (human GLP-1R [3]) was 0.809 nM and the EC50 (human GLP-1R [5]; CHO-K1 cells, PathHunter β-arrestin-2 recruitment, 0.1% casein, read-out: hGLP1R B-Arrestin2 Rel EC50 uM (SEM, n)) was 0.00666 µM. The “hGLP1R B-Arrestin2 % Top” value (human GLP-1R [5]; normalized to GLP-1 maximum control) was 70.6% and the EC50 (human GLP-1R [6]) was 0.289 nM.

In the case of “keyhole limpet hemocyanin [KLH, reference compound]”, the “% Donor Response (CD4+ T cell response)” value [7] is reported as 100% and the “Median Response Strength in positive donors (CDI)” value [7] is reported as 391 CDI.
